From patent publication US6462086B1, “Non-malignant disease treatment with Ras antagonists” (Ramot University Authority for Applied Research and …, priority 1999, dated 2002)
“Also recorded” adds a separate entry of the source.

Experiments:
[1] = system: TAA-induced acute liver injury in rats; assay: TAA-induced acute liver damage in FTS-pretreated rats; type: in vivo, rat; details: TAA + FTS 5 mg/kg daily from 3 days before TAA; 52 h; Mean ± SD, n = 5
Method: To exclude the possibility that the effect of FTS on hepatic fibrosis is due to anti-inflammatory rather than anti fibrotic activity, acute liver damage was induced by TAA (3 injections of 400 mg/kg, i.p.) in a separate group of FTS-pretreated rats. Blood was drawn 52 h after the first TAA injection for the measurement of serum levels of hepatic enzymes and blood ammonia, and liver tissue was […]. TAA was administered in 3 consecutive injections of 400 mg/kg, i.p. in 24 h intervals. Serum levels of liver enzymes, blood ammonia and liver histology were determined 52 h after the first TAA injection. FTS administration (5 mg/kg daily), was started 3 days prior to the first TAA injection.

EAN in Lewis rats = assay: EAN rats, electrophysiology (tail nerve stimulation, CMAP); type: in vivo, rat; details: day 20; FTS for 10 or 28 days
Method: The animal was anesthetized with phenobarbital. […] Previous experience has shown that smaller amounts are necessary during the acute EAN disease phase in order to avoid mortality. Mono-polar needle electrodes were used to stimulate the sciatic nerve and the response was measured in the plantar muscle by a surface ring electrode (8). Alternatively, the tail nerves were stimulated and tail muscle response measured by the same electrodes. […] The tail response was therefore be used in the early disease stage (days 18-22). The latency of responses to distal and proximal stimulation were used to calculate nerve conduction velocity. The amplitude of the responses was used to assess conduction block. Electrophysiological assays were performed on day 20 in the 3 groups of rats described in the previous section.

[2] = system: lymphocyte surface markers (CD3, CD4, CD8, IA-k, Vb17, CD62L); assay: FACS analysis of surface markers on lymph node lymphocytes of EAE mice; type: in vivo, mouse; details: percentages of positively stained cells among 10,000; EAE mice + FTS, day 10
Method: Single cell suspensions were prepared from the draining lymph nodes of mice in which EAE was induced, on day 10 post immunization for EAE-induction. Cells were incubated on ice, for 30 min with 20 μl of the monoclonal FITC-conjugated anti-CD62L, anti-IA-k ([…]) and anti-Vb17 antibodies (Becton and Dickinson, USA). The proportions of cells expressing these surface markers were examined by a fluoresecence activated cell sorter (FACS), and were calculated as the percentages of positively stained cells among 10,000 cells enumerated.

[3] = system: TAA-induced liver cirrhosis in Wistar rats; assay: Thioacetamide (TAA)-induced liver cirrhosis in rats, liver histopathology; type: in vivo, rat
Method: Liver cirrhosis was induced in rats by intraperitoneal (i.p.) administration of TAA 200 mg/kg twice weekly for 12 weeks, as previously described (1, 2).
The FTS was dissolved in PBS and administered i.p. 3 times a week to rats according to their assigned groups. Four groups containing 6 rats each were treated as follows. One group received TAA 200 mg/kg i.p. twice a week and i.p. injections of PBS 3 days a week for 12 weeks (cirrhotic controls for the FTS-treated groups). A second group received TAA for 12 weeks and FTS 5 mg/kg, 3 times a week. […] The two control groups consisted of one that received PBS injections without TAA for 12 weeks (normal controls) and a group of 5 rats that received only FTS 5 mg/kg i.p. for 12 weeks to monitor the appearance of adverse effects.
The rats were sacrificed at the completion of the treatment protocols. Their livers were removed and midsections of the left lobes of the livers were processed for light microscopy. This processing consisted of fixing the specimens in a 5% neutral formol solution, embedding the specimens in paraffin, making sections of 5 μm thickness, and staining the sections with hematoxylin and eosin. Reticulin stain was performed to enhance the visualization of the extent and distribution of liver fibrosis. The tissue slices were scanned and scored by two expert pathologists who were not aware of the sample source. The degree of inflammation and fibrosis was expressed as the mean of 10 different fields in each slide that had been classified on a scale of 0-3 according to Muller, et al(3).

MRL/lpr mice [4] = assay: Autoantibody levels in MRL mice after 2 months FTS (Example 4, ELISA); type: in vivo, mouse; details: FTS 5 mg/kg 5 days per week
Method: Two models of the antiphospholipid syndrome were compared. The MRL/lpr mouse, which is a […] model due to a mutaion in the Fas gene, and Balb-C mice immunized with ApoH (β2 glucoprotein 1), which is an induced model. The effect of 2 months FTS (5 days per week, 5 mg/kg) treatment on autoantibody levels in MRL mice (age 10 weeks to 18 weeks) is presented in FIG. 14. The levels of autoantibodies were measured at age 18 weeks by routine ELISA assays (repeated measures ANOVA, p=0.016). […] Anti-ApoH and anti-dsDNA were the major autoantibody groups found. Significant, but lower levels of autoantibodies to phospholipids and single stranded DNA were found in the MRL/lpr mice compared to the MLR/++ controls.

[5] = system: Balb-C mice immunized with ApoH; assay: Autoantibodies in Balb-C mice immunized with ApoH (induced APS model); type: in vivo, mouse; details: 9 per group
Method: Similar antibody assays were performed with the sera of Balb-C mice (9 per group) immunized with ApoH 10 μg in complete Freund's adjuvant with boosts given 2 and 6 weeks later in incomplete adjuvant.

[6] = system: cancers in animals mediated by oncogenic forms of Ras; details: cited from earlier work
MRL/lpr mice [7] = assay: Proteinuria (dipstick) in MRL mice; type: in vivo, mouse; details: MRL/lpr mice treated 5 days a week from 6 weeks of age
Method: The presence of proteinuria was measured on freshly expressed urine samples at weekly intervals. The protein content was evaluated semiquantitatively using a commercial dipstick method (Macherey-Nagel, Germany). This colorimetric assay is specific for albumin, with approximate protein concentration as follows: 0, 30, 100 and 500 mg/dl (mg%).

[8] = FTS 5 mg/kg alone, 12 weeks, no TAA
[9] = TAA + FTS 5 mg/kg 3 times/week for 12 weeks
[10] = MRL/lpr mice, age 10 to 18 weeks

SMILES: CC(C)=CCC/C(C)=C/CC/C(C)=C/CSc1ccccc1C(=O)O [FTS, farnesyl thiosalicylic acid]
- AST [1]: 2996 ± 364 IU/l
- Blood Ammonia [1]: 8.9 ± 2.3 µg/mL
- Hepatic inflammation and cell necrosis (score of 0-3) [1]: 2.5 ± 0.6
- compound muscle action potentials (CMAPs), tail muscle (EAN in Lewis rats): significant amelioration
- proportion of lymphocytes expressing CD3 [2]: 94.2 ± 2.7
- proportion of lymphocytes expressing CD4 [2]: 51.6 ± 1.9
- proportion of lymphocytes expressing CD8 [2]: 26.2 ± 9.2
- proportion of lymphocytes expressing CD62L [2]: 67.1 ± 7.3
- proportion of lymphocytes expressing IA-k [2]: 28.3 ± 3.2
- proportion of lymphocytes expressing Vb17 [2]: 11.3 ± 2.1
- Fibrotic septa (0-3) [3, 8]: 0
- Nodule formation (0-3) [3, 8]: 0
- Fibrotic septa (0-3) [3, 9]: 0.9±0.5
- Nodule formation (0-3) [3, 9]: 0.7 ± 0.6
- levels of autoantibodies to phospholipids and single stranded DNA (minor antibodies) (MRL/lpr mice [4]): did not lower significantly
- levels of anti-ApoH autoantibodies (MRL/lpr mice [4]; [10]): Significantly lower levels
- levels of anti-double stranded DNA (dsDNA) autoantibodies (MRL/lpr mice [4]; [10]): Significantly lower levels
- anti-ApoH, anti-ds DNA and anti-phosphatidyl-ethanolamine levels [5]: significant effect of FTS treatment
- reduction in cancer cell growth ([6]; cancers in animals, in some cases): greater than 90%
- body weight, specific organs size, blood count and chemistry ([6]; earlier studies in FTS-treated animals): no alteration
- doses that effectively inhibited tumor growth ([6]; previous animal studies): 3 to 10 mg/kg
- effect on normal cells ([6]; similar dosages as in cancer treatment): very little, if any, effect on normal cells
- proteinuria (MRL/lpr mice [7]): very low levels of proteinuria; also recorded: normalized
